Laboratory results published in PMC10032564, “Ligand-Capped Cobalt(II) Multiplies the Value of the Double-Histidine Motif for PCS NMR Studies” (Journal of the American Chemical Society, 2023).

Legend:
[1] = biological target: T1, GB1 (K28H/Q32H, diHis GB1) (Streptococcus sp. 'group G', UniProt P06654, K254H/Q258H); assay: NMR titration; PCS of the IDA-Co2+ complex; type: binding
T1 construct: gene spg; GB1

[2] = biological target: T1, GB1 (K28H/Q32H, diHis GB1); assay: NMR (Kd measurement; PCS of the NTA-Co2+ complex); type: binding

T1 sequence (P06654 228-282 K254H/Q258H limits assumed): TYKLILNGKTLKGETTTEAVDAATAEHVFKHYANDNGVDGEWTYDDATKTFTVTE

SMILES | Kd [1] [µM] | Kd [2] [µM]
O=C(O)CNCC(=O)O [IDA-Co2+, iminodiacetic acid] | < 212 | –
O=C(O)CN(CC(=O)O)CC(=O)O [NTA-Co2+, nitrilotriacetic acid] | – | 128
